# Assay results as given in patent publication EP4700120A1, “NOVEL P[…] DON-DEGRADING ACTIVITY” (CJ Cheiljedang Corporation, priority 2023, dated 2024).
# Test system: IPEC-J2 cells
# Test: Cytotoxicity of DON degradation products, WST assay cell viability
# Type: cell-based
# Details: for Cell Viability (%): 24 hours
# Procedure: A DMEM/F-12 medium supplemented with 10% FBS and 1% penicillin-streptomycin was added to a T75 flask, and the IPEC-J2 cell line was subcultured in the flask at 37°C and under 5% CO2. For cytotoxicity evaluation, the cultured cells were seeded in 96-well plates containing DMEM/F-12 with 10% FBS to 3×10^4 cells/100 µL, and the cells were incubated for 24 hour under the above conditions. Thereafter, the existing medium was removed, and the three samples in Table 4 were each applied to the cells so as to final concentrations of 2 µM, 1 µM, and 0.5 µM (based on the substrate concentration before the reaction), followed by additional incubation at 37°C in a CO2 incubator for 24 hours. After incubation, the existing substances were removed, and the cells were washed once with DMEM/F-12 and treated with a WST assay reagent (EZ-Cytox kit, DoGenBio) together with the medium. After 2 hours, absorbance at 450 nm was measured to determine cell viability of IPEC-J2 cells.
smiles,measurement,setting,value
"CC1=C[C@H]2O[C@@H]3[C@H](O)C[C@](C)([C@@]2(CO)[C@H](O)C1=O)[C@]31CO1 [DON Control, deoxynivalenol]",cell viability,"IPEC-J2, 0.5 µM to 2 µM",approximately 65%
same,Cell Viability (%),"IPEC-J2, sample concentration 0.5 µM (substrate concentration before the reaction)",79.0%
same,Cell Viability (%),"IPEC-J2, sample concentration 1 µM (substrate concentration before the reaction)",71.4%
same,Cell Viability (%),"IPEC-J2, sample concentration 2 µM (substrate concentration before the reaction)",64.6%
